Values of other authors, collected in patent publication US12594238B2, “Low hygroscopicity active powder compositions” (PHILIP MORRIS PRODUCTS S.A., priority 2020, dated 2026).

Settings: at 25° C.

OC[C@H]1O[C@H](O[C@H]2O[C@H](CO)[C@@H](O)[C@H](O)[C@H]2O)[C@H](O)[C@@H](O)[C@@H]1O [trehalose]
solubility: 69 g/100 ml water
